This is an account of results in ChEMBL document CHEMBL2440076, “New triarylpyrazoles as broad-spectrum anticancer agents: design, synthesis, and biological evaluation” (Eur J Med Chem, 2013).

What all share (type): functional
Experiment [1] relates to A498. The experiment in a line: Growth inhibition of human A498 cells assessed as cell growth at 3X10'-6 M after 48 hrs by sulforhodamine B assay. To be noted: A498, 48 h, read-out: Activity. (In general: Sulforhodamine B stains cellular protein and so reports cell mass.)
In experiment [2] the test system is SNB-19. The experiment in a line: Growth inhibition of human SNB19 cells assessed as cell growth at 3X10'-5 M after 48 hrs by sulforhodamine B assay. The following applies: SNB-19, 48 h, read-out: Activity.
The subject of experiment [3] is COLO 205. Briefly: Growth inhibition of human COLO205 cells assessed as cell growth at 3X10'-9 M after 48 hrs by sulforhodamine B assay. The following applies: COLO 205, 48 h, read-out: Activity.
The test system of experiment [4] is A549. The experiment in a line: Growth inhibition of human A549/ATCC cells assessed as cell growth at 3X10'-8 M after 48 hrs by sulforhodamine B assay. The following applies: A549, 48 h, read-out: Activity.
The subject of experiment [5] is LOX IMVI. Briefly: Growth inhibition of human LOXIMVI cells assessed as cell growth at 3X10'-9 M after 48 hrs by sulforhodamine B assay. The following applies: read-out: Activity.
The test system of experiment [6] is PC-3. The experiment in a line: Growth inhibition of human PC3 cells assessed as cell growth at 3X10'-7 M after 48 hrs by sulforhodamine B assay. The following applies: PC-3, 48 h, read-out: Activity.
The subject of experiment [7] is NCI-H522. Briefly: Growth inhibition of human NCI-H522 cells assessed as cell growth at 3X10'-9 M after 48 hrs by sulforhodamine B assay. To be noted: NCI-H522, 48 h, read-out: Activity.
The subject of experiment [8] is 786-0. Briefly: Growth inhibition of human 786-0 cells assessed as cell growth at 3X10'-5 M after 48 hrs by sulforhodamine B assay. To be noted: 786-0, 48 h, read-out: Activity.
Experiment [9] concerns MDA-MB-231. Briefly: Growth inhibition of human MDA-MB-231 cells assessed as cell growth at 3X10'-7 M after 48 hrs by sulforhodamine B assay. The following applies: MDA-MB-231, 48 h, read-out: Activity.
In experiment [10] the test system is NCI-H460. The experiment in a line: Growth inhibition of human NCI-H460 cells assessed as cell growth at 3X10'-9 M after 48 hrs by sulforhodamine B assay. To be noted: NCI-H460, 48 h, read-out: Activity.
Experiment [11] relates to SF-539. The experiment in a line: Growth inhibition of human SF539 cells assessed as cell growth at 3X10'-8 M after 48 hrs by sulforhodamine B assay. The following applies: SF-539, 48 h, read-out: Activity.
Experiment [12] deals with SF-295. The experiment in a line: Growth inhibition of human SF295 cells assessed as cell growth at 3X10'-8 M after 48 hrs by sulforhodamine B assay. To be noted: SF-295, 48 h, read-out: Activity.
Experiment [13] deals with NCI-H322M. Briefly: Growth inhibition of human NCI-H322M cells assessed as cell growth at 3X10'-9 M after 48 hrs by sulforhodamine B assay. To be noted: read-out: Activity.
The test system of experiment [14] is M14. Briefly: Growth inhibition of human M14 cells assessed as cell growth at 3X10'-6 M after 48 hrs by sulforhodamine B assay. The following applies: M14, 48 h, read-out: Activity.
Experiment [15] has as its system U-251. Briefly: Growth inhibition of human U251 cells assessed as cell growth at 3X10'-9 M after 48 hrs by sulforhodamine B assay. To be noted: U-251, 48 h, read-out: Activity.
A short description of experiment [16]: Growth inhibition of human HCC2998 cells assessed as cell growth at 3X10'-7 M after 48 hrs by sulforhodamine B assay. The following applies: HCC 2998, 48 h, read-out: Activity.
Experiment [17] in a line: Growth inhibition of human Hs 578T cells assessed as cell growth at 3X10'-7 M after 48 hrs by sulforhodamine B assay. To be noted: read-out: Activity.
The test system of experiment [18] is HCT-15. The experiment in a line: Growth inhibition of human HCT15 cells assessed as cell growth at 3X10'-6 M after 48 hrs by sulforhodamine B assay. The following applies: HCT-15, 48 h, read-out: Activity.
Experiment [19] concerns K562. The experiment in a line: Growth inhibition of human K562 cells assessed as cell growth at 3X10'-5 M after 48 hrs by sulforhodamine B assay. The following applies: K562, 48 h, read-out: Activity.
Experiment [20] relates to A549. Briefly: Growth inhibition of human A549/ATCC cells assessed as cell growth at 3X10'-6 M after 48 hrs by sulforhodamine B assay. The following applies: A549, 48 h, read-out: Activity.
Experiment [21] relates to SN12C. Briefly: Growth inhibition of human SN12C cells assessed as cell growth at 3X10'-5 M after 48 hrs by sulforhodamine B assay. The following applies: read-out: Activity.
For experiment [22], the system named is K562. The experiment in a line: Growth inhibition of human K562 cells assessed as cell growth at 3X10'-9 M after 48 hrs by sulforhodamine B assay. To be noted: K562, 48 h, read-out: Activity.
Experiment [23] has as its system SF-268. Briefly: Growth inhibition of human SF268 cells assessed as cell growth at 3X10'-9 M after 48 hrs by sulforhodamine B assay. To be noted: SF-268, 48 h, read-out: Activity.
Experiment [24] deals with IGROV-1. The experiment in a line: Growth inhibition of human IGROV1 cells assessed as cell growth at 3X10'-5 M after 48 hrs by sulforhodamine B assay. The following applies: IGROV-1, 48 h, read-out: Activity.
The subject of experiment [25] is NCI-H460. Briefly: Growth inhibition of human NCI-H460 cells assessed as cell growth at 3X10'-5 M after 48 hrs by sulforhodamine B assay. To be noted: NCI-H460, 48 h, read-out: Activity.
Experiment [26] deals with MDA-MB-435. Briefly: Growth inhibition of human MDA-MB-435 cells assessed as cell growth at 3X10'-6 M after 48 hrs by sulforhodamine B assay. To be noted: MDA-MB-435, 48 h, read-out: Activity.
Experiment [27] deals with NCI-H460. The experiment in a line: Growth inhibition of human NCI-H460 cells assessed as cell growth at 3X10'-8 M after 48 hrs by sulforhodamine B assay. To be noted: NCI-H460, 48 h, read-out: Activity.
Experiment [28] has as its system COLO 205. The experiment in a line: Growth inhibition of human COLO205 cells assessed as cell growth at 3X10'-7 M after 48 hrs by sulforhodamine B assay. To be noted: COLO 205, 48 h, read-out: Activity.
Experiment [29] deals with HCT-15. Briefly: Growth inhibition of human HCT15 cells assessed as cell growth at 3X10'-8 M after 48 hrs by sulforhodamine B assay. To be noted: HCT-15, 48 h, read-out: Activity.
Experiment [30] deals with SNB-75. Briefly: Growth inhibition of human SNB75 cells assessed as cell growth at 3X10'-9 M after 48 hrs by sulforhodamine B assay. To be noted: SNB-75, 48 h, read-out: Activity.
Experiment [31] relates to NCI-H23. Briefly: Growth inhibition of human NCI-H23 cells assessed as cell growth at 3X10'-6 M after 48 hrs by sulforhodamine B assay. To be noted: NCI-H23, 48 h, read-out: Activity.
The test system of experiment [32] is SK-MEL-5. The experiment in a line: Growth inhibition of human SK-MEL-5 cells assessed as cell growth at 3X10'-7 M after 48 hrs by sulforhodamine B assay. To be noted: SK-MEL-5, 48 h, read-out: Activity.
Experiment [33] in a line: Growth inhibition of human NCI-ADR-RES cells assessed as cell growth at 3X10'-6 M after 48 hrs by sulforhodamine B assay. The following applies: read-out: Activity.
Experiment [34] concerns OVCAR-5. The experiment in a line: Growth inhibition of human OVCAR5 cells assessed as cell growth at 3X10'-9 M after 48 hrs by sulforhodamine B assay. To be noted: OVCAR-5, 48 h, read-out: Activity.
The test system of experiment [35] is SK-MEL-28. The experiment in a line: Growth inhibition of human SK-MEL-28 cells assessed as cell growth at 3X10'-5 M after 48 hrs by sulforhodamine B assay. The following applies: SK-MEL-28, 48 h, read-out: Activity.
Experiment [36] in a line: Growth inhibition of human NCI-ADR-RES cells assessed as cell growth at 5X10'-6 M after 48 hrs by sulforhodamine B assay. The following applies: read-out: Activity.

For `COc1cc(-c2nn(-c3cccc(NC(=O)Nc4ccc(Cl)c(C(F)(F)F)c4)c3)cc2-c2ccncc2)ccc1Cl`, the growth at 3 µM in experiment [1] was 12%; in experiment [14], 4%; in experiment [18], 18%; in experiment [20], 11%; in [26], -36%; in experiment [31], 11%. For the same molecule, the growth at 3 µM in experiment [33] worked out at 3%. The growth at 30 µM in experiment [2] is -23%; in [8], -43%; in experiment [19], 1%; in [21], -19%; in experiment [24], -37%; in experiment [25], -28%. Moreover, in experiment [35], the growth at 30 µM was -70%. The growth at 0.003 µM in experiment [3] was 106%; in experiment [5] it was 97%; in experiment [7], 106%; in experiment [10], 103%; in experiment [13] it was 93%; in experiment [15], 97%. Moreover, the growth at 0.003 µM in experiment [22] amounted to 110%; in experiment [23], 97%; in [30], 90%; in experiment [34], 99%. Moreover, the growth at 0.03 µM in [4] came out at 94%; in experiment [11] it was 93%; in experiment [12], 90%; in experiment [27], 102%; in experiment [29], 97%. Besides, the growth at 0.3 µM in experiment [6] was 80%; in experiment [9], 85%; in experiment [16], 101%; in [17], 89%; in experiment [28], 101%; in [32], 87%.
Consider `O=C(Nc1cccc(-n2cc(-c3ccncc3)c(-c3ccc(Cl)c(O)c3)n2)c1)Nc1cc(C(F)(F)F)cc(C(F)(F)F)c1`, for which the growth at 5 µM in [36] was 1%.
In the case of `O=C(Nc1cccc(-n2cc(-c3ccncc3)c(-c3ccc(Cl)c(O)c3)n2)c1)Nc1ccc(Cl)c(Cl)c1`, the growth at 3 µM in experiment [1] is -1%; in [14], 14%; in [18], 14%; in experiment [20], 14%; in [26], 14%; in experiment [31], 11%. In [33], the growth at 3 µM came out at 46%. Also, the growth at 30 µM was 18% in [2]; 5% in experiment [8]; 4% in experiment [19]; 3% in experiment [21]; 5% in [24]; -58% in experiment [25]. Besides, the growth at 30 µM in experiment [35] is -27%. Further, the growth at 0.003 µM was 100% in experiment [3]; 96% in [5]; 96% in experiment [7]; 108% in experiment [10]; 95% in experiment [13]; 98% in experiment [15]. Further, the growth at 0.003 µM in experiment [22] came out at 100%; in [23] it was 93%; in experiment [30] it was 88%; in [34] it was 96%. The growth at 0.03 µM in [4] was determined as 100%; in [11] it was 95%; in experiment [27] it was 105%; in experiment [29] it was 103%. Besides, the growth at 0.3 µM turned out to be 81% in experiment [6]; 94% in experiment [9]; 115% in experiment [16]; 82% in experiment [17]; 104% in experiment [28]; 90% in experiment [32].
In the case of `COc1cc(-c2nn(-c3cccc(NC(=O)Nc4ccc(Cl)c(Cl)c4)c3)cc2-c2ccncc2)ccc1Cl`, the growth at 5 µM in [36] was -2%.
As to `COc1cc(-c2nn(-c3cccc(NC(=O)c4ccc(Cl)c(C(F)(F)F)c4)c3)cc2-c2ccncc2)ccc1Cl`, the growth at 3 µM is 47% in [1]; 47% in experiment [14]; 50% in experiment [18]; 44% in [20]; -32% in experiment [26]; 59% in experiment [31]. Further, the growth at 3 µM in experiment [33] was 22%. Moreover, the growth at 30 µM was determined as 29% in experiment [2]; 32% in experiment [8]; 11% in [19]; 35% in experiment [21]; 8% in experiment [24]; 7% in [25]. Besides, in experiment [35], the growth at 30 µM stood at 29%. Besides, the growth at 0.003 µM came out at 101% in experiment [3]; 92% in experiment [5]; 89% in [7]; 103% in experiment [10]; 91% in [13]; 96% in experiment [15]. For the same molecule, the growth at 0.003 µM in [22] was determined as 99%; in experiment [23], 94%; in [30], 86%; in [34], 96%. Further, the growth at 0.03 µM in experiment [4] worked out at 98%; in experiment [11], 102%; in experiment [12], 94%; in experiment [27], 104%; in experiment [29], 99%. Moreover, the growth at 0.3 µM in [6] was 78%; in experiment [9], 81%; in [16], 101%; in [17], 82%; in experiment [28], 99%; in experiment [32], 93%.
For the molecule `COc1cc(-c2nn(-c3cccc(NC(=O)c4cccc(C(F)(F)F)c4)c3)cc2-c2ccncc2)ccc1Cl`, in experiment [36], the growth at 5 µM was -21%.
`COc1cc(-c2nn(-c3cccc(NC(=O)Nc4cccc(C(F)(F)F)c4)c3)cc2-c2ccncc2)ccc1Cl`: in experiment [36], the growth at 5 µM is -10%.
With `O=C(Nc1cccc(-n2cc(-c3ccncc3)c(-c3ccc(Cl)c(O)c3)n2)c1)c1ccc(N2CCOCC2)c(C(F)(F)F)c1`, the growth at 5 µM in [36] was 35%.
